Source: patent US12304894B2, “Derivatives of adamantyl oxadiazoles and pharmaceutically acceptable solvates, hydrates and salts thereof, pharmaceutical composition comprising same, synthesis method, suitable for use as effective and selective inhibitors of the reductase activity of the enzyme 11-beta dehydrogenase type 1 …” (PONTIFICIA UNIVERSIDAD CATOLICA DE CHILE, priority 2019, dated 2025)

Key:
[1] = biological target: recombinant 11β-HSD1 enzyme (Homo sapiens (Human), UniProt P28845); assay: 11β-HSD1 oxidase activity (HTRF Cortisol Kit); type: biochemical
Procedure: Determination of 11β-HSD1 Oxidase Activity
The Cortisol Kit (Cisbio) product was used for that purpose.
For the analysis, the compounds are reconstituted in DMSO in a stock of 10 mM concentration, from which serial dilutions were prepared for the efficiency curve.
The recombinant 11β-HSD1 enzyme dilutions were prepared in 20 mM Tris Buffer 5 mM EDTA pH 6.0 (Tris buffer).
Initially, the enzyme concentration to be used was determined. For this purpose, a plate for HRTF was prepared with Tris buffer with 100 nM cortisol and 200 μM NADP+, including in the wells of the plate for HTRF together with the enzyme in a 4:1 ratio, respectively, and incubated for 2 hours at 37° C. After this time, the reagents of the Cortisol kit, Cortisol d2 and Cortisol cryptate in sample ratio, Cortisol d2 and cortisol cryptate 2:1:1 were added, incubating this new reaction for 1 hour at room temperature. Subsequently, the fluorescence was determined at 665 and 620 nm.
An HRTF plate was again prepared, where the reaction buffer, the recombinant 11β-HSD1 enzyme and the compound were added in each well in a 3:1:1 ratio, respectively. The plate was incubated at 37° C. for 2 hours. After the incubation time, the reagents of the cortisol kit, cortisol d2 and cortisol cryptate, were added as indicated above. They were then incubated at room temperature for 1 hour to finally read the fluorescence at 665 and 620 nm.

11β-HSD2 = 11β-HSD2 oxidase activity in human hepatic microsomes (HTRF Cortisol Kit); type: biochemical; settings: remaining activity at 100 nM compound
Procedure: Determination of 11β-HSD2 Oxidase Activity
The concentration of cortisone produced in the reaction, with and without the compounds, was determined using the Cortisol Kit (Cisbio) product in order to evaluate the 11β-HSD2 oxidase activity.
As in the previous assays, the compounds are reconstituted in DMSO to 10 mM stock, in order to subsequently make serial dilutions to determine the efficacy curve.
To perform the assay, the HTRF plate was prepared containing Tris buffer, 100 nM cortisol and 200 μM NAD^+. Enzyme is added to the corresponding wells in a 4:1 ratio, respectively, and incubated for 2 hours at 37° C. For the kit control, two wells are added only with Tris buffer.
After the incubation time, the reagents of the Cortisol kit, Cortisol d2 and Cortisol cryptate, in a sample ratio, Cortisol d2 and cortisol cryptate 2:1:1 are added. For the negative control, cortisol d2 was replaced in some wells by the kit's reconstitution buffer. The plate was incubated for 1 hour at room temperature to later read at 665 and 620 nm.
For this purpose, the reaction buffer was prepared and subsequently, in a plate for HTRF, the reaction buffer, the microsomes in a concentration of 5 mg/mL and the compound in a ratio of 3:1:1, respectively, were added to each well. In the case of reaction controls, the reaction buffer without cortisol and without compound is included for the negative control. For the positive control, no compound is added, and for the kit controls, only the reaction buffer is added to the negative and positive control wells.
After incubating the plate for 2 hours, the reagents of the cortisol kit, cortisol d2 and cortisol cryptate, are added to the corresponding wells as indicated above. They are then incubated at room temperature for 1 hour to finally read the 665 and 620 nm fluorescence.

recombinant 11β-HSD1 enzyme, sequence (P28845 whole entry): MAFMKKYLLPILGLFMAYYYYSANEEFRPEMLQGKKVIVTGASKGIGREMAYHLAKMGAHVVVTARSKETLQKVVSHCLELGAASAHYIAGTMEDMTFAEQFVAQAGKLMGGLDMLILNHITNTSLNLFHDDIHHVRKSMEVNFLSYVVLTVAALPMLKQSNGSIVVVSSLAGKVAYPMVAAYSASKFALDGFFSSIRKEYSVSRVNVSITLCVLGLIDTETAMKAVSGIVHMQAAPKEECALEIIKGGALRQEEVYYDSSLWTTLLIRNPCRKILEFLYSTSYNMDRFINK

Cc1cccc(CCc2nc(C34CC5CC(CC(C5)C3)C4)no2)c1 [BD-40, 1-(3-methylphenyl)-2-(3-adamantyl-1,2,4-oxadiazol-5-yl)ethane]
11b-HSD1 oxidase (activ rem %) 100 nM ([1]; remaining activity at 100 nM compound): 92.1%
11b-HSD1 oxidase (activ rem %) 100 uM ([1]; remaining activity at 100 uM compound): 89.9%
11b-HSD2 oxidase (activ rem %) Microcosms 100 nM (11β-HSD2): 97.9%
